Patent publication US20060154255A1, “Blood and tissue sample assessment of mitochondrial function and biochemistry as a tool for selection for feed efficiency and other production parameters” (priority 2002, published 2006)

What was measured:
[1] = system: breast muscle mitochondria; assay: H2O2 production (electron leak) in breast muscle mitochondria with respiratory chain inhibitors; type: biochemical, broilers
leg muscle mitochondria = assay: H2O2 production (electron leak) in leg muscle mitochondria with respiratory chain inhibitors; type: biochemical, broilers; settings: low FE leg muscle mitochondria; versus no inhibitor (NI); rotenone 10 μM; P<0.07
[2] = breast muscle mitochondria, inhibition at Complex II or Q cycle of Complex III, malonate 7 μM, TTFA 8 μM, myxothiazol 13 μM
[3] = low FE breast muscle mitochondria, versus no inhibitor (NI), rotenone 10 μM, antimycin A 13 μM

Row | Molecule | H2O2 production [1, 2] | H2O2 production [1, 3] | H2O2 production (leg muscle mitochondria)
1 | O=C(CC(=O)C(F)(F)F)c1cccs1 [TTFA, 4,4,4-trifluoro-1-[2-thienyl]-1,3-butanedione] | No differences were observed | – | –
2 | O=C(O)CC(=O)O [malonate] | No differences were observed | – | –
3 | CO/C(=C/C(N)=O)[C@H](C)[C@H](/C=C/c1csc(-c2csc([C@@H](C)/C=C/C=C/C(C)C)n2)n1)OC [myxothiazol] | No differences were observed | – | –
4 | C=C(C)[C@H]1Cc2c(ccc3c2O[C@@H]2COc4cc(OC)c(OC)cc4[C@@H]2C3=O)O1 [rotenone] | – | raised H2O2 production | an elevation
5 | antimycin A | – | raised H2O2 production | –
